From patent publication US11485737B2, “Diaryl substituted 5,5-fused ring compounds as C5aR inhibitors” (CHEMOCENTRYX, INC., priority 2017, dated 2022)
pIC50: −log10 of the molar value.

target: T1, C5aR (Homo sapiens, UniProt P21730); assay: Chemotaxis assay using U937 cells (C5a-induced migration); format: cell-based; settings: chemotaxis (migration) of U937 cells towards C5a; read-out: Mig IC50
T1 construct: U937 cells are a monocytic cell line which express C5aR; host or cells: U937 cells (cAMP-treated overnight)
T1 sequence (P21730 1-350): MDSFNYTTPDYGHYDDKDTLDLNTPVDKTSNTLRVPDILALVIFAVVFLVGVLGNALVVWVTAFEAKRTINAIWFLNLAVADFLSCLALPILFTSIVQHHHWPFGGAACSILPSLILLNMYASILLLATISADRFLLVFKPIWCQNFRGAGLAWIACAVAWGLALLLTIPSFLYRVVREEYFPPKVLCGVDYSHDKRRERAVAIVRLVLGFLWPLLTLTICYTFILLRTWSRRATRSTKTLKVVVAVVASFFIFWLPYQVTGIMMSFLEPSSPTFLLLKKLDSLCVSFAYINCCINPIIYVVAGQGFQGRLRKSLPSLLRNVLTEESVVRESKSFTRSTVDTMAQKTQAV
Description: U937 cells are a monocytic cell line which express C5aR, and are available from ATCC (VA). These cells were cultured as a suspension in RPMI-1640 medium supplemented with 2 mM L-glutamine, 1.5 g/L sodium bicarbonate, 4.5 g/L glucose, 10 mM HEPES, 1 mM sodium pyruvate, and 10% FBS. Cells were grown under 5% CO2/95% air, 100% humidity at 37° C. and subcultured twice weekly at 1:6 (cells were cultured at a density range of 1×10^5 to 2×10^6 cells/mL) and harvested at 1×10^6 cells/mL. Prior to assay, cells are treated overnight with 0.5 mM of cyclic AMP (Sigma, OH) and washed once prior to use. cAMP treated U937 cells can be used in C5aR ligand binding and functional assays.
Optionally, compounds may be further assayed for their ability to inhibit chemotaxis in cells. Chemotaxis assays are performed using 5 μm pore polycarbonate, polyvinylpyrrolidone-coated filters in 96-well chemotaxis chambers (Neuroprobe; Gaithersburg, Md.) using chemotaxis buffer (Hank's balanced salt solution (HBSS) and 1% FBS). C5aR ligands (i.e., C5a, R&D Systems; Minneapolis, Minn.) are use to evaluate compound mediated inhibition of C5aR mediated migration. Other chemokines (i.e., SDF-1α; R&D Systems; Minneapolis, Minn.) are used as specificity controls. The lower chamber is loaded with 29 μl of chemokine (i.e., 0.03 nM C5a) and varying amounts of compound; the top chamber contains 100,000 U937 or neutrophil cells in 20 μl. The chambers are incubated 1.5 hours at 37° C., and the number of cells in the lower chamber quantified either by direct cell counts in five high powered fields per well or by the CyQuant assay (Molecular Probes), a fluorescent dye method that measures nucleic acid content and microscopic observation.
The compounds in Table 1, below, were prepared using the methods described above. Characterization data is provided for each compound listed. Activity is provided as follows for the chemotaxis assay using U937 cells as described herein (Example 7): +, 500 nM<IC50; ++, 50 nM<IC50<500 nM; +++, 5 nM<IC50<50 nM; and ++++, IC50<5 nM.

Structure (SMILES) | pIC50
CCc1cccc(CC)c1-n1nc2c(c1-c1cc(Cl)c(NC(N)=O)cc1F)CN(Cc1ccc(C(F)(F)F)cc1C(F)(F)F)C2(C)C [Compound 1.001, 1-(4-(5-(2,4-bis(trifluoromethyl)benzyl)-2-(2,6-diethylphenyl)-6,6-dimethyl-2,4,5,6-tetrahydropyrrolo[3,4-c]pyrazol-3-yl)-2-chloro-5-fluorophenyl)urea] | > 8.30
CCc1cccc(CC)c1-n1nc2c(c1-c1cc(OC)c(NC(N)=O)cc1F)CN(Cc1ccc(C(F)(F)F)cc1C(F)(F)F)C2(C)C [Compound 1.002] | > 8.30
CCc1cccc(CC)c1-n1nc2c(c1-c1cc(C)c(NC(N)=O)cc1F)CN(Cc1ccc(C(F)(F)F)cc1C(F)(F)F)C2(C)C [Compound 1.003] | > 8.30
CCc1cccc(CC)c1-n1nc2c(c1-c1cc(F)c(NC(N)=O)cc1F)CN(CC(C)(C)C(F)(F)F)C2(C)C [Compound 1.004, 1-(4-(2-(2,6-diethylphenyl)-6,6-dimethyl-5-(3,3,3-trifluoro-2,2-dimethylpropyl)-2,4,5,6-tetrahydropyrrolo[3,4-c]pyrazol-3-yl)-2,5-difluorophenyl)urea] | > 8.30
CCc1cccc(CC)c1-n1nc2c(c1-c1ccc(C(N)=O)c(F)c1)CN(Cc1ccc(C(F)(F)F)cc1C(F)(F)F)C2(C)C [Compound 1.005] | < 6.30
Cc1cccc(C)c1-n1nc2c(c1-c1cc(F)c(NC(N)=O)cc1F)CN(Cc1ccccc1C(F)(F)F)C2(C)C [Compound 1.006] | > 8.30
Cc1cccc(C)c1-n1nc2c(c1-c1cc(F)c(NC(N)=O)cc1F)CN(Cc1ccc(C(F)(F)F)cc1C(F)(F)F)C2(C)C [Compound 1.007] | > 8.30
CCc1cccc(CC)c1-n1nc2c(c1-c1cc(F)c(NC(N)=O)cc1C)CN(CC1(C)COC1)C2(C)C [Compound 1.008] | 7.30 to 8.30
CCc1cccc(CC)c1-n1nc2c(c1-c1cc(F)c(NC(N)=O)cc1C)CN(Cc1ccccc1C(F)(F)F)C2(C)C [Compound 1.009] | > 8.30
CCc1cccc(CC)c1-n1nc2c(c1-c1cc(F)c(NC(N)=O)cc1C)CN(Cc1ccc(C(F)(F)F)cc1C(F)(F)F)C2(C)C [Compound 1.010] | > 8.30
CCc1cccc(CC)c1-n1nc2c(c1-c1cc(F)c(NC(N)=O)cc1F)CN(Cc1cc(Cl)ccc1Cl)C2(C)C [Compound 1.011] | > 8.30
CCc1cccc(CC)c1-n1nc2c(c1-c1cc(F)c(NC(N)=O)cc1F)CN(C(=O)CC(C)C)C2(C)C [Compound 1.012] | > 8.30
CCc1cccc(CC)c1-n1nc2c(c1-c1cc(F)c(NC(N)=O)cc1F)CN(C(=O)C(C)CC)C2(C)C (stereo not drawn) [Compound 1.013] | > 8.30
CCc1cccc(CC)c1-n1nc2c(c1-c1cc(F)c(NC(N)=O)cc1F)CN(Cc1ccccc1C(F)(F)F)C2(C)C [Compound 1.014] | > 8.30
CCc1cccc(CC)c1-n1nc2c(c1-c1cc(F)c(NC(N)=O)cc1F)CN(CC1CCOCC1)C2(C)C [Compound 1.015] | > 8.30
CCc1cccc(CC)c1-n1nc2c(c1-c1cc(F)c(NC(N)=O)cc1F)CN(C(=O)C(C)C)C2(C)C [Compound 1.016, 1-(4-(2-(2,6-diethylphenyl)-5-isobutyryl-6,6-dimethyl-2,4,5,6-tetrahydropyrrolo[3,4-c]pyrazol-3-yl)-2,5-difluorophenyl)urea] | 7.30 to 8.30
CCc1cccc(CC)c1-n1nc2c(c1-c1cc(F)c(NC(N)=O)cc1F)CN(Cc1cc(C(F)(F)F)ccc1C(F)(F)F)C2(C)C [Compound 1.017] | > 8.30
CCc1cccc(CC)c1-n1nc2c(c1-c1cc(F)c(NC(N)=O)cc1F)CN(Cc1ccc(C(F)(F)F)cc1C(F)(F)F)C2(C)C [Compound 1.018] | > 8.30
Cc1cccc(C)c1-n1nc2c(c1-c1ccc(NC(N)=O)cc1)CN(CC(C)(C)C)C2(C)C [Compound 1.019] | 6.30 to 7.30
Cc1cccc(C)c1-n1nc2c(c1-c1ccc(C(N)=O)cc1)CN(c1ccc(C(F)(F)F)c(Cl)c1)C2=O [Compound 1.020] | < 6.30
Cc1ccc(C(C)(C)C)cc1N1Cc2c(nn(-c3c(C)cccc3C)c2-c2ccc(NC(N)=O)cc2)C1=O [Compound 1.021] | < 6.30
Cc1cccc(C)c1-n1nc2c(c1-c1ccc(NC(N)=O)cc1)CN(CC(C)(C)C)C2 [Compound 1.022] | 6.30 to 7.30
Cc1cc(C(N)=O)ccc1-c1c2c(nn1-c1c(C)cccc1C)C(=O)N(c1cc(C(C)(C)C)ccc1C)C2 [Compound 1.023] | 6.30 to 7.30
Cc1cc(-c2c3c(nn2-c2c(C)cccc2C)C(=O)N(c2cc(C(C)(C)C)ccc2C)C3)ccc1C(N)=O [Compound 1.024] | 7.30 to 8.30

Structure (SMILES) | pIC50
Cc1cc(-c2c3c(nn2-c2c(C)cccc2C)CN(c2cc(C(C)(C)C)ccc2C)C3=O)ccc1C(N)=O [Compound 1.025] | < 6.30
Cc1cccc(C)c1-n1nc2c(c1-c1ccc(C(N)=O)cc1)CN(c1cccc(C(C)(C)C)n1)C2 [Compound 1.027] | < 6.30
Cc1cccc(C)c1-n1nc2c(c1-c1ccc(C(N)=O)cc1)CN(c1cc(C(C)(C)C)ccn1)C2 [Compound 1.028] | < 6.30
Cc1cccc(C)c1-n1nc2c(c1-c1ccc(NC(N)=O)cc1)CN(C(=O)OC(C)(C)C)C2 [Compound 1.029] | < 6.30
Cc1ccc(C(C)(C)C)cc1N1Cc2c(nn(-c3c(C)cccc3C)c2-c2ccc(C(N)=O)cc2)C1=O [Compound 1.030] | 7.30 to 8.30
Cc1ccc(C(C)(C)C)cc1N1Cc2nn(-c3c(C)cccc3C)c(-c3ccc(C(N)=O)cc3)c2C1=O [Compound 1.031] | 7.30 to 8.30
COc1cccc(C)c1-n1nc2c(c1-c1ccc(NC(N)=O)cc1)CN(C(=O)NC(C)(C)C)C2 [Compound 1.032] | < 6.30
Cc1cccc(C)c1-n1nc2c(c1-c1ccc(C(N)=O)cc1)CN(C(=O)NC(C)(C)C)C2 [Compound 1.033] | < 6.30
Cc1cccc(C)c1-n1nc2c(c1-c1ccc(C(N)=O)cc1)CN(c1ccc(F)cc1C(C)C)C2 [Compound 1.034] | 6.30 to 7.30
Cc1cc(F)c(C(C)C)cc1N1Cc2nn(-c3c(C)cccc3C)c(-c3ccc(C(N)=O)cc3)c2C1 [Compound 1.035, 4-(2-(2,6-dimethylphenyl)-5-(4-fluoro-5-isopropyl-2-methylphenyl)-2,4,5,6-tetrahydropyrrolo[3,4-c]pyrazol-3-yl)benzamide] | 7.30 to 8.30
Cc1cccc(C)c1-n1nc2c(c1-c1ccc(C(N)=O)cc1)CN(C(=O)c1ccc(C(C)(C)C)cc1)C2 [Compound 1.036] | < 6.30
Cc1cccc(C)c1-n1nc2c(c1-c1ccc(C(N)=O)cc1)CN(C(=O)c1ccccc1)C2 [Compound 1.037] | < 6.30
Cc1cccc(C)c1-n1nc2c(c1-c1ccc(C(N)=O)cc1)CN(C(=O)OC(C)(C)C)C2 [Compound 1.038] | < 6.30
Cc1ccc(N2Cc3nn(-c4c(C)cccc4C)c(-c4ccc(C(N)=O)cc4)c3C2)cc1C(F)(F)F [Compound 1.039] | < 6.30
Cc1cc(C(N)=O)ccc1-c1c2c(nn1-c1c(C)cccc1C)CN(c1cc(C(C)(C)C)ccc1C)C2 [Compound 1.040] | 6.30 to 7.30
Cc1ccc(C(C)(C)C)cc1N1Cc2nn(-c3c(C)cccc3OCC(C)C)c(-c3ccc(C(N)=O)cc3)c2C1 [Compound 1.041] | > 8.30
Cc1ccc(C(C)(C)C)cc1N1Cc2nn(-c3c(C)cccc3C)c(-c3ccc(C(=O)NC4CCCC4)cc3)c2C1 [Compound 1.042] | < 6.30
Cc1ccc(C(C)(C)C)cc1N1Cc2nn(-c3c(C)cccc3C)c(-c3ccc(C(=O)O)cc3)c2C1 [Compound 1.043] | < 6.30
COc1cccc(C)c1-n1nc2c(c1-c1ccc(NC(N)=O)cc1)CN(c1ccccc1C(C)C)C2 [Compound 1.044] | 6.30 to 7.30
Cc1cccc(C)c1-n1nc2c(c1-c1ccc(NC(N)=O)cc1)CN(c1ccccc1C(C)C)C2 [Compound 1.045] | 6.30 to 7.30
Cc1cccc(C)c1-n1nc2c(c1-c1ccc(N)cc1)CN(c1ccccc1C(C)C)C2 [Compound 1.046] | 6.30 to 7.30
Cc1ccc(C(C)(C)C)cc1N1Cc2nn(-c3c(C)cccc3C)c(-c3ccc(C(N)=O)cc3)c2C1 [Compound 1.047] | > 8.30
Cc1ccc(C(C)(C)C)cc1N1Cc2nn(-c3c(C)cccc3C)c(-c3ccc(C(C)(C)O)cc3)c2C1 [Compound 1.048] | 6.30 to 7.30
Cc1ccc(C(C)(C)C)cc1N1Cc2nn(-c3c(C)cccc3C)c(-c3ccc(NC(N)=O)cc3)c2C1 [Compound 1.049] | 6.30 to 7.30
